{"source": "ChEMBL document CHEMBL1201862", "about": "“PubChem BioAssay data set” (2004)", "key": {"[1]": {"biological_target": "Lytic switch protein BZLF1 (Epstein-Barr virus (strain B95-8) (HHV-4) (Human herpesvirus 4), UniProt P03206)", "sequence (P03206 whole entry)": "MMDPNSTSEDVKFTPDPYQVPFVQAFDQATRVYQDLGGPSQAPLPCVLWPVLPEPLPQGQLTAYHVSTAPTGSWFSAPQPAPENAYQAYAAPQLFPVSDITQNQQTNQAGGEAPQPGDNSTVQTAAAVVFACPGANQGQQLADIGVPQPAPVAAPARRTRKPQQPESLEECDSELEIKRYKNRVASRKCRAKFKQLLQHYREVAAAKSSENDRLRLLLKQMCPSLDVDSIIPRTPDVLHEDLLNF", "assay": "EBV ZTA inhibitors, dose response, counter-screen for EBNA-1 inhibitor project, biochemical, fluorescence polarization, Epstein-Barr virus, 1536-well (AID 2377);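 note: fluorescence polarization of Cy5-labelled ZRE DNA probe bound by purified Zta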", "parameters": "species or system human gammaherpesvirus 4"}, "[2]": {"biological_target": "Epstein-Barr nuclear antigen 1 (Epstein-Barr virus (strain B95-8) (HHV-4) (Human herpesvirus 4), UniProt P03211)", "sequence (P03211 whole entry)": "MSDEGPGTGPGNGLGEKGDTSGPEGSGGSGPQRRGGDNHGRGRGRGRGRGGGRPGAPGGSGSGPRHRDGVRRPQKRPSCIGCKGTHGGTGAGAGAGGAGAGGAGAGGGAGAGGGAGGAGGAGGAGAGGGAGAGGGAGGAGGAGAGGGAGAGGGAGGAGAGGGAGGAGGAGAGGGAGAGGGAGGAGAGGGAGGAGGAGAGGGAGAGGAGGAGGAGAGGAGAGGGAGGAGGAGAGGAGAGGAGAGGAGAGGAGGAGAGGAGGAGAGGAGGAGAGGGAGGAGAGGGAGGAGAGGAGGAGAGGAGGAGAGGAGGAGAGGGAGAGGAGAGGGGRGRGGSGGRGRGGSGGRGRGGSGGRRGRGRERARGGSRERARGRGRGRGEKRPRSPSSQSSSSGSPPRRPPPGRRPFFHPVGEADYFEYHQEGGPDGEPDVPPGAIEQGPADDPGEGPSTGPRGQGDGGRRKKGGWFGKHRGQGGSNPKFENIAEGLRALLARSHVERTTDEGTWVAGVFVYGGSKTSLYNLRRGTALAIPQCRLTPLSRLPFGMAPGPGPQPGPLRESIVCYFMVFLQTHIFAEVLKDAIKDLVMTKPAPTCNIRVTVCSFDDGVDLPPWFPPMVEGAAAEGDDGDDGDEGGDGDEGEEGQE", "assay": "EBNA-1 inhibitors, dose response, biochemical, fluorescence polarization, 1536-well (AID 2381);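 note: fluorescence polarization of a Cy5 DNA probe bound by EBNA-1 protein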", "parameters": "species or system human gammaherpesvirus 4"}, "[3]": {"biological_target": "Voltage-gated inwardly rectifying potassium channel KCNH2 (Homo sapiens, UniProt Q12809)", "sequence (Q12809 whole entry)": "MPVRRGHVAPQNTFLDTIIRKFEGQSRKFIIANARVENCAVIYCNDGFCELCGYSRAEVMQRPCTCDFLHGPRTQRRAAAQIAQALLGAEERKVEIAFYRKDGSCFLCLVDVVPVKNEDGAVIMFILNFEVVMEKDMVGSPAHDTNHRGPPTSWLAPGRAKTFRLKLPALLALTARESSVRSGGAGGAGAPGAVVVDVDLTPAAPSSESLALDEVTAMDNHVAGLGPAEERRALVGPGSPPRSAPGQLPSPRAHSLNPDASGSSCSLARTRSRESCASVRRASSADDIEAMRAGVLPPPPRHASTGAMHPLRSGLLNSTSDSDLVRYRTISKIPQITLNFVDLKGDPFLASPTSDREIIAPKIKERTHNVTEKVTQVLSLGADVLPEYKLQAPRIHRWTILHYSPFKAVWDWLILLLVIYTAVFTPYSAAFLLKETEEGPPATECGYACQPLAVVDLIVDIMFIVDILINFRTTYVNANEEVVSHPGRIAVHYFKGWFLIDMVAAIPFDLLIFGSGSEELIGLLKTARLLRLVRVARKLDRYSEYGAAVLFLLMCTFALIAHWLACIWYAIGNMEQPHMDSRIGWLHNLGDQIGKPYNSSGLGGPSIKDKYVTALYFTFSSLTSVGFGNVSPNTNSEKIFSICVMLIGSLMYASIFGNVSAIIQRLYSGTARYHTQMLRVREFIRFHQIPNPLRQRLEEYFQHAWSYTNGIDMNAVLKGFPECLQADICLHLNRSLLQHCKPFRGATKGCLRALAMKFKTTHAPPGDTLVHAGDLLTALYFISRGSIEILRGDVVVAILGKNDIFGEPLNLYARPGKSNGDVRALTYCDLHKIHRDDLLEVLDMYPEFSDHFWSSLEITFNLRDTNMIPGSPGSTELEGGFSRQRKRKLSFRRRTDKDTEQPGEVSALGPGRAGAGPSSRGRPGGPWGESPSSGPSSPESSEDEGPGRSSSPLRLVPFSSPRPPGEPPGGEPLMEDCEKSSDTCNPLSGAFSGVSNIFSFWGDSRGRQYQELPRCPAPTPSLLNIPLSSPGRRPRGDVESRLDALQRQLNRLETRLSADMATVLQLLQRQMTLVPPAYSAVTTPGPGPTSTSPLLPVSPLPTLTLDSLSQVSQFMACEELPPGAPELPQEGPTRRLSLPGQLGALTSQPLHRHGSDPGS", "assay": "hERG protection from proarrhythmic block, potency, dose response, cell-based, thallium flux (AID 2121)", "format": "ADME"}, "[4]": {"assay": "cytotoxicity in KRAS-transformed pancreatic duct cells, primary screen, cell-based, fluorescence, HTS (AID 431)", "format": "functional", "settings": "Homo sapiens"}, "[5]": {"assay": "cytotoxicity in HPDE-C7 cells, cell-based, fluorescence, HTS (AID 430)", "format": "functional", "settings": "Homo sapiens"}, "[6]": {"assay": "A Cell Based Secondary Assay To Explore Cytotoxicity of Compounds that Sensitize Mycobacterium Tuberculosis to Beta-Lactam Antibiotics.", "format": "functional"}, "[7]": {"biological_target": "NAD-dependent protein deacylase sirtuin-5, mitochondrial (Homo sapiens, UniProt Q9NXA8)", "sequence (Q9NXA8 whole entry)": "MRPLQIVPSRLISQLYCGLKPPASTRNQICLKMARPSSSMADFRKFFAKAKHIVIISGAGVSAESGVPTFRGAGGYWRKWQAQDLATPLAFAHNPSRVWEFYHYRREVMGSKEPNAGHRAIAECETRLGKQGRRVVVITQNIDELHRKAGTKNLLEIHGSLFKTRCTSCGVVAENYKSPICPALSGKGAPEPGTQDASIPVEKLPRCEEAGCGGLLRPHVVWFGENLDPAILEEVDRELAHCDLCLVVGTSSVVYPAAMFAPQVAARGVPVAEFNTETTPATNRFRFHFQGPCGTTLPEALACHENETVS", "assay": "SIRT5 desuccinylase inhibitors, dose response, biochemical, fluorescence imaging, cherry-pick, set 5 (AID 720591);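 note: desuccinylation of succinyl peptide AMC substrate read as fluorescence after trypsin release; potency of inhibitors that lower fluorescence and may act on trypsin instead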"}, "Paired box protein Pax-8": {"biological_target": "Paired box protein Pax-8 (Homo sapiens, UniProt Q06710)", "sequence (Q06710 whole entry)": "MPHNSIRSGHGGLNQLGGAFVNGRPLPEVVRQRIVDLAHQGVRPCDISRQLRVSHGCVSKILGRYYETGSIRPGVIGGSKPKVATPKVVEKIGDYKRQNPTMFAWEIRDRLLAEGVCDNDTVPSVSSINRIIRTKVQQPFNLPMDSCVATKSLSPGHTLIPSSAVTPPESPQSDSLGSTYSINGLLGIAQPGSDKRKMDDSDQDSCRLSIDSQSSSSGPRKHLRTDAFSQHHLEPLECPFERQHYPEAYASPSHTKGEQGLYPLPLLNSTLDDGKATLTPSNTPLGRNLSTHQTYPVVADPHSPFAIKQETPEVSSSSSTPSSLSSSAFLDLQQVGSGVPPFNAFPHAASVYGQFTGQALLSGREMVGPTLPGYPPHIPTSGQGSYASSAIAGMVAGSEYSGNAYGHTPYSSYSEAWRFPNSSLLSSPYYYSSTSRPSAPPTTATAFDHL", "assay": "inhibitors of PAX8-driven TPO luciferase reporter, dose response, RMG-I cells, cherry-pick (AID 687027);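 note: luciferase reporter driven by Pax8 target thyroperoxidase promoter measured by SteadyGlo luminescence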", "format": "functional, cell-based"}, "[8]": {"assay": "A2780 ovarian cancer cell cytotoxicity, dose response, cytotoxicity control, plate reader, dry powder samples (AID 743046)", "format": "functional, cell-based"}, "[9]": {"assay": "cytotoxicity in COV434 cells, dose response, cytotoxicity control for PAX8 inhibitor project, cell-based, plate reader, dry powder, SA7 (AID 743145)", "format": "functional"}, "[10]": {"assay": "PAX5 activity inhibitors, dose response, selectivity assay for PAX8 inhibitor project, cell-based, plate reader, dry powder samples (AID 743047);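 note: HEK293 cells carrying a Pax5 driven CD19 promoter luciferase reporter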", "format": "functional"}, "[11]": {"assay": "PAX2 cell-based inhibition, dose response, selectivity assay for PAX8 inhibitor project, plate reader, dry powder samples (AID 743048);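 note: HEK293 cells carrying a WT1 promoter luciferase reporter driven by expressed Pax2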", "format": "functional"}, "[12]": {"assay": "cytotoxicity in COV362 ovarian cancer cells, dose response, cytotoxicity control for PAX8 inhibitor project, cell-based, plate reader, dry powder, SA12 (AID 743144)", "format": "functional"}, "[13]": {"assay": "cytotoxicity in OVCAR8 ovarian cancer cells, dose response, PAX8 project, cell-based, plate reader, dry powder samples (AID 743197)", "format": "functional", "settings": "OVCAR-8"}, "[14]": {"assay": "cytotoxicity dependent on PAX8, dose response, cell-based, plate reader, dry powder (AID 743049)", "format": "functional"}, "[15]": {"assay": "cytotoxicity in OVCAR4 cells, dose response, cytotoxicity control for PAX8 inhibitor project, cell-based, plate reader, dry powder, SA11 (AID 743150)", "format": "functional", "settings": "OVCAR-4"}, "[16]": {"assay": "inhibitors of clade B AD8 Env fusion, dose response, cell-based, cherry-pick (AID 652062);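 note: potency is for inhibitors of fusion seen as a drop in luminescence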", "format": "functional"}, "[17]": {"assay": "IGROV1 ovarian cancer cell cytotoxicity, dose response, PAX8 inhibitor project, plate reader, dry powder samples (AID 743043)", "format": "functional, cell-based", "settings": "IGROV-1"}, "[18]": {"assay": "CEM21 lymphoblast cell cytotoxicity, dose response, cytotoxicity control for viral fusion inhibitor project, CellTiter-Glo luminescence, cherry-picked (AID 652042);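 note: potency for signal decrease meaning cytotoxicity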", "format": "functional, cell-based"}, "[19]": {"assay": "inhibitors of HIV Env-driven cell fusion, dose response, cherry-pick (AID 652057)", "format": "functional, cell-based"}, "[20]": {"assay": "ZM109 Env clade C HIV-1 fusion inhibitors, dose response, HeLa effector, CEM target cells, luciferase, cherry-pick (AID 652058)", "format": "functional, cell-based"}, "[21]": {"assay": "non-specific cell cytotoxicity, dose response, cytotoxicity control for PAX8 inhibitor project, plate reader, dry powder samples (AID 743021)", "format": "functional, cell-based"}, "[22]": {"assay": "NIH:OVCAR-3 ovarian cancer cell cytotoxicity, dose response, PAX8 inhibitor project, plate reader, dry powder samples (AID 743044)", "format": "functional, cell-based"}, "[23]": {"assay": "IOSE-T80 ovarian epithelial cell cytotoxicity, dose response, cytotoxicity control for PAX8 inhibitor project, plate reader, dry powder samples (AID 743045)", "format": "functional, cell-based"}, "[24]": {"assay": "P. falciparum Dd2 growth inhibitors, dose response, SYBR Green, cherry-picked samples (AID 1159567)", "format": "functional, cell-based"}, "[25]": {"assay": "P. falciparum ATP4 D1247Y mutant growth inhibitors, dose response, NITD609-resistant line, SYBR Green, dry powder (AID 1159571);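 note: parasites synchronized at ring stage by sorbitol before testing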", "format": "functional, cell-based"}, "[26]": {"assay": "P. falciparum Dd2 growth inhibitors, dose response, SYBR Green, dry powder samples (AID 1159566);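 note: potency for growth inhibition with lower SYBR green DNA signal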", "format": "functional, cell-based"}, "[27]": {"assay": "HepG2 cell cytotoxicity, dose response, cytotoxicity control, plate reader, dry powder samples (AID 1159569);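 note: inhibitor potency with signal falling toward the positive control level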", "format": "functional, cell-based"}, "[28]": {"assay": "inhibitors of PGC1a acetylation in cells, dose response, cell-based, cherry-picked samples (AID 720514);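 note: potency may reflect raised or lowered acetylation signal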", "format": "functional"}, "[29]": {"assay": "P. falciparum 3D7-ScDHODH growth inhibitors, dose response, SYBR Green, dry powder samples (AID 1159570);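 note: parasite growth measured after 72 hours of compound exposure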", "format": "functional, cell-based"}, "[30]": {"assay": "half-maximal inhibitory concentration for glucagon-like peptide-1 release, STC-1 cell line, dose-response (AID 1117345)", "format": "functional, cell-based"}, "[31]": {"assay": "Glucagon-like peptide 1 release potency, NCI-H716 cell line, dose-response, half-maximal inhibitory concentration (AID 1117344)", "format": "functional, cell-based"}, "[32]": {"assay": "Dose-response inhibition of insulin secretion in a rat insulinoma line at 5 mM glucose (AID 1117331)", "format": "functional, cell-based", "settings": "INS-1E"}}, "note": "Calls of active or inactive are those of the source."}
{"smiles": "CCN(CC)S(=O)(=O)c1ccc(C(=O)Nc2nnc(N=C(S)Nc3ccccc3)s2)cc1", "values": [{"measurement": "IC50", "setting": "[1]", "result": "> 111 µM (not active)"}, {"measurement": "IC50", "setting": "[2]", "result": "6.46 µM (active)"}]}
{"smiles": "O=C(NCc1ccc2c(c1)OCO2)C1CCC(CNS(=O)(=O)c2ccc(Cl)cc2)CC1", "note": "(stereo not drawn)", "values": [{"measurement": "IC50", "setting": "[1]", "result": "> 111 µM (not active)"}, {"measurement": "IC50", "setting": "[2]", "result": "> 148 µM (not active)"}]}
{"smiles": "Cc1ccc(C(=O)CC(=O)c2cccc(F)c2)c(O)c1", "values": [{"measurement": "EC50", "setting": "[3]", "result": "3.76 µM (active)"}]}
{"smiles": "CC(O)/C=C/c1ccc2ccccc2n1", "note": "(stereo not drawn)", "values": [{"measurement": "EC50", "setting": "[4]", "result": "> 20 µM (not active)"}, {"measurement": "EC50", "setting": "[5]", "result": "17.8 µM (active)"}, {"measurement": "CC50", "setting": "[6]", "result": "35.2 µM (active)"}]}
{"smiles": "CCN(Cc1nc(-c2ccccc2)no1)C(=O)c1ccco1", "values": [{"measurement": "AC50", "setting": "[7]", "result": "> 30 µM (inactive)"}]}
{"smiles": "N#C[C@@H]1[C@H](c2ccc(C#CC3CCCC3)cc2)[C@H](CO)N1C(=O)Nc1ccc(F)cc1", "values": [{"measurement": "AC50", "setting": "Paired box protein Pax-8", "result": "10.5 µM (active)"}, {"measurement": "AC50", "setting": "[8]", "result": "19.4 µM (active)"}, {"measurement": "AC50", "setting": "[9]", "result": "46.9 µM (active)"}, {"measurement": "AC50", "setting": "[10]", "result": "9.89 µM (active)"}, {"measurement": "AC50", "setting": "[11]", "result": "9.84 µM (active)"}, {"measurement": "AC50", "setting": "[12]", "result": "62.6 µM (active)"}, {"measurement": "AC50", "setting": "[13]", "result": "> 70 µM (inactive)"}, {"measurement": "AC50", "setting": "[14]", "result": "19.8 µM (active)"}, {"measurement": "AC50", "setting": "[15]", "result": "18.8 µM (active)"}]}
{"smiles": "C[C@@H]1CN([C@@H](C)CO)C(=O)Cc2cc(NS(=O)(=O)c3ccccc3)ccc2O[C@H]1CN(C)Cc1ccc(Cl)c(Cl)c1", "values": [{"measurement": "AC50", "setting": "Paired box protein Pax-8", "result": "2.42 µM (active)"}, {"measurement": "AC50", "setting": "[16]", "result": "1.19 µM (active)"}, {"measurement": "AC50", "setting": "[17]", "result": "5.66 µM (active)"}, {"measurement": "AC50", "setting": "[8]", "result": "24.9 µM (active)"}, {"measurement": "AC50", "setting": "[18]", "result": "20.3 µM (active)"}, {"measurement": "AC50", "setting": "[19]", "result": "8.55 µM (active)"}, {"measurement": "AC50", "setting": "[20]", "result": "0.289 µM (active)"}, {"measurement": "AC50", "setting": "[13]", "result": "11.5 µM (active)"}, {"measurement": "AC50", "setting": "[21]", "result": "3.32 µM (active)"}, {"measurement": "AC50", "setting": "[22]", "result": "11 µM (active)"}, {"measurement": "AC50", "setting": "[23]", "result": "10.8 µM (active)"}]}
{"smiles": "COc1cccc(-c2ccc([C@@H]3[C@@H]4CN(C(=O)C5CC5)C[C@H]3N4)cc2)c1", "values": [{"measurement": "AC50", "setting": "Paired box protein Pax-8", "result": "3.06 µM (active)"}, {"measurement": "AC50", "setting": "[24]", "result": "0.949 µM (active)"}, {"measurement": "AC50", "setting": "[25]", "result": "1.03 µM (active)"}, {"measurement": "AC50", "setting": "[26]", "result": "0.634 µM (active)"}, {"measurement": "AC50", "setting": "[27]", "result": "34.3 µM (active)"}, {"measurement": "AC50", "setting": "[13]", "result": "39 µM (active)"}, {"measurement": "AC50", "setting": "[28]", "result": "24.1 µM (active)"}, {"measurement": "AC50", "setting": "[22]", "result": "43.6 µM (active)"}, {"measurement": "AC50", "setting": "[29]", "result": "0.85 µM (active)"}]}
{"smiles": "C[C@H](CO)N1C[C@H](C)[C@@H](CN(C)Cc2ccc(-c3ccccc3)cc2)OCc2ccccc2-c2c(n(C)c3ccccc23)C1=O", "values": [{"measurement": "AC50", "setting": "[24]", "result": "2.35 µM (active)"}, {"measurement": "AC50", "setting": "[25]", "result": "1.46 µM (active)"}, {"measurement": "AC50", "setting": "[26]", "result": "0.865 µM (active)"}, {"measurement": "AC50", "setting": "[27]", "result": "19.1 µM (active)"}, {"measurement": "AC50", "setting": "[29]", "result": "2.06 µM (active)"}]}
{"smiles": "CC1=C(C(=O)O)N2C(=O)[C@@H](NC(=O)[C@H](N)c3ccccc3)[C@H]2SC1", "note": "[CEPHALEXIN ANHYDROUS]", "values": [{"measurement": "IC50", "setting": "[30]", "result": "> 40 µM (inactive)"}, {"measurement": "IC50", "setting": "[31]", "result": "> 40 µM (inactive)"}]}
{"smiles": "CCCCCNC(=N)N/N=C/c1c[nH]c2ccc(OC)cc12", "note": "[TEGASEROD]", "values": [{"measurement": "IC50", "setting": "[32]", "result": "16.8 µM (inactive)"}, {"measurement": "IC50", "setting": "[30]", "result": "> 40 µM (inactive)"}, {"measurement": "IC50", "setting": "[31]", "result": "10.9 µM (inactive)"}]}
